# Reference: ChEMBL document CHEMBL5325437, “Shifting the selectivity of pyrido[2,3-d]pyrimidin-7(8H)-one inhibitors towards the salt-inducible kinase (SIK) subfamily” (Eur J Med Chem, 2023)
# Calls of active or inactive are those of the source. The rule behind the calls is not given here.
# Key:
# [1] = target: Serine/threonine-protein kinase PAK 1 (Homo sapiens) (UniProt Q13153); test: Binding affinity to recombinant PAK1 (unknown origin) assessed as stabilization by measuring change in melting temperature at 10 uM by SYPRO orange dye based differential scanning fluorimetry assay
# Sequence of Serine/threonine-protein kinase PAK 1 (Homo sapiens) (Q13153 whole entry): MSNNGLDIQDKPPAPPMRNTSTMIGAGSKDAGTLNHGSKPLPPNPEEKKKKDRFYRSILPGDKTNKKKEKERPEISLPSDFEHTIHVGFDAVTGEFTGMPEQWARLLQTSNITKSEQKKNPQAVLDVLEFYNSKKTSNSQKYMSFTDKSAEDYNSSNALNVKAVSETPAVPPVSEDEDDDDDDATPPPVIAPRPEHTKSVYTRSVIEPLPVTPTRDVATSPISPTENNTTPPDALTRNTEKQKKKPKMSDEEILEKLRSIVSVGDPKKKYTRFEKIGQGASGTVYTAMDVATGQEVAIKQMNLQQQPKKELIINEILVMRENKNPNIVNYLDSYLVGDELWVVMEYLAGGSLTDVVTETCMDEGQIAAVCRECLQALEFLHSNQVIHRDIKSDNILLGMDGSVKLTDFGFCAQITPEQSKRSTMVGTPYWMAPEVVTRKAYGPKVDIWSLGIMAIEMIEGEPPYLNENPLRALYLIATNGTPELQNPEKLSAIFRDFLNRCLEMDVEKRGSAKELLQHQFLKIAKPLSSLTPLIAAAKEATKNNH
# [2] = target: Serine/threonine-protein kinase 24 (Homo sapiens) (UniProt Q9Y6E0); test: Binding affinity to recombinant MST3 (unknown origin) assessed as stabilization by measuring change in melting temperature at 10 uM by SYPRO orange dye based differential scanning fluorimetry assay
# Sequence of Serine/threonine-protein kinase 24 (Homo sapiens) (Q9Y6E0 whole entry, looked up): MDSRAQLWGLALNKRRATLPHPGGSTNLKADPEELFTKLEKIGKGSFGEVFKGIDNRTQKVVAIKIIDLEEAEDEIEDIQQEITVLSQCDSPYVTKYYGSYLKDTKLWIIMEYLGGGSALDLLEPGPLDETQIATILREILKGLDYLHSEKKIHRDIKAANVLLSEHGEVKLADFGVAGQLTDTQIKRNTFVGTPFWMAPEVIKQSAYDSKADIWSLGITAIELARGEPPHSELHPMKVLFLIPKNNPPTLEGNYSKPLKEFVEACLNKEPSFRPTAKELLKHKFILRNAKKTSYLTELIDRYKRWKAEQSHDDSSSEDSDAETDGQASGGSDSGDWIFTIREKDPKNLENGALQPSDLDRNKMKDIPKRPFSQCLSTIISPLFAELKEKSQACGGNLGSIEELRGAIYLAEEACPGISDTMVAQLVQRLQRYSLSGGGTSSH
# [3] = target: T1, Serine/threonine-protein kinase 3 (Homo sapiens) (UniProt Q13188); test: Binding affinity to recombinant MST2 (unknown origin) assessed as stabilization by measuring change in melting temperature at 10 uM by SYPRO orange dye based differential scanning fluorimetry assay
# T1 sequence (whole entry): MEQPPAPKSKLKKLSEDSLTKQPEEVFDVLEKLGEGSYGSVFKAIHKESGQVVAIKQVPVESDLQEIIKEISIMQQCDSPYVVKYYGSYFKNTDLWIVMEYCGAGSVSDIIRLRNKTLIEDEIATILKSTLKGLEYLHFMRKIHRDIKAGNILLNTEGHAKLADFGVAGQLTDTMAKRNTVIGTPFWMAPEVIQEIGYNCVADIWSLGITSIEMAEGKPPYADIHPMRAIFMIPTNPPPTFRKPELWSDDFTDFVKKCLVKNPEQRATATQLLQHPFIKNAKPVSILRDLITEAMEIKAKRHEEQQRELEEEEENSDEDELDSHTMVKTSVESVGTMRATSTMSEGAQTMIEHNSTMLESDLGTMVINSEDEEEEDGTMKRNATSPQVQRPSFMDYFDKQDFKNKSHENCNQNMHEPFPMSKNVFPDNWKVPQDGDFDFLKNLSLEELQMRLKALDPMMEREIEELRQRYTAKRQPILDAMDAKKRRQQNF
# [4] = target: Serine/threonine-protein kinase 26 (Homo sapiens) (UniProt Q9P289); test: Binding affinity to recombinant MST4 (unknown origin) assessed as stabilization by measuring change in melting temperature at 10 uM by SYPRO orange dye based differential scanning fluorimetry assay
# Sequence of Serine/threonine-protein kinase 26 (Homo sapiens) (Q9P289 2-416 limits assumed): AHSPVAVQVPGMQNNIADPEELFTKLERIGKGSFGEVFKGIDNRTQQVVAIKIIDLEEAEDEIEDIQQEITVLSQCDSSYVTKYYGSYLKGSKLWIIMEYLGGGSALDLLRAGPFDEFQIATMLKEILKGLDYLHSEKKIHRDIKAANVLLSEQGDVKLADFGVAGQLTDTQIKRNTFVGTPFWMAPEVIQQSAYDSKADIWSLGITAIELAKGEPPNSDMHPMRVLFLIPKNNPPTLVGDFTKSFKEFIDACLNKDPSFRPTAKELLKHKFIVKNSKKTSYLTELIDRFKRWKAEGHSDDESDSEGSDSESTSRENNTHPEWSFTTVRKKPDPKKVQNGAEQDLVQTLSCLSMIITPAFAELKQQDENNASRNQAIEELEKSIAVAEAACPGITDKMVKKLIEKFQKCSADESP
# [5] = target: T2, Serine/threonine-protein kinase 4 (Homo sapiens) (UniProt Q13043); test: Binding affinity to recombinant MST1 (unknown origin) assessed as stabilization by measuring change in melting temperature at 10 uM by SYPRO orange dye based differential scanning fluorimetry assay
# T2 sequence (whole entry): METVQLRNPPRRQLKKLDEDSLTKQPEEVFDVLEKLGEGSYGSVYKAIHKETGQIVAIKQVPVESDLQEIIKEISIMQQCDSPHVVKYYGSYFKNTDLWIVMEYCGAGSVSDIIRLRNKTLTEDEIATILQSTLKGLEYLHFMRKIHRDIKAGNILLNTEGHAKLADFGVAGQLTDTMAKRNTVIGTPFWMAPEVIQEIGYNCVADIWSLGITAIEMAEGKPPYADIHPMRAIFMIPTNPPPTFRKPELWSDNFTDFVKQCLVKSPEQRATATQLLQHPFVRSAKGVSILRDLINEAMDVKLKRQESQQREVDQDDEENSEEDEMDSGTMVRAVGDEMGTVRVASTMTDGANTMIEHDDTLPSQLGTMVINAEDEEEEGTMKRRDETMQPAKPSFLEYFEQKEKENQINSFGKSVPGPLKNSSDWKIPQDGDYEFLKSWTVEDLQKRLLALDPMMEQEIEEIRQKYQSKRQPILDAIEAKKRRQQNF
# [6] = target: Serine/threonine-protein kinase SIK1 (Homo sapiens, UniProt P57059); test: Inhibition of full length NanoLuc fused SIK1 (unknown origin) transfected in HEK293T cells using NanoBRET NanoGlo substrate incubated for 2 hrs in presence of tracer by NanoBRET assay; format: cell-based
# Sequence of Serine/threonine-protein kinase SIK1 (P57059 whole entry, the tested form may be a part): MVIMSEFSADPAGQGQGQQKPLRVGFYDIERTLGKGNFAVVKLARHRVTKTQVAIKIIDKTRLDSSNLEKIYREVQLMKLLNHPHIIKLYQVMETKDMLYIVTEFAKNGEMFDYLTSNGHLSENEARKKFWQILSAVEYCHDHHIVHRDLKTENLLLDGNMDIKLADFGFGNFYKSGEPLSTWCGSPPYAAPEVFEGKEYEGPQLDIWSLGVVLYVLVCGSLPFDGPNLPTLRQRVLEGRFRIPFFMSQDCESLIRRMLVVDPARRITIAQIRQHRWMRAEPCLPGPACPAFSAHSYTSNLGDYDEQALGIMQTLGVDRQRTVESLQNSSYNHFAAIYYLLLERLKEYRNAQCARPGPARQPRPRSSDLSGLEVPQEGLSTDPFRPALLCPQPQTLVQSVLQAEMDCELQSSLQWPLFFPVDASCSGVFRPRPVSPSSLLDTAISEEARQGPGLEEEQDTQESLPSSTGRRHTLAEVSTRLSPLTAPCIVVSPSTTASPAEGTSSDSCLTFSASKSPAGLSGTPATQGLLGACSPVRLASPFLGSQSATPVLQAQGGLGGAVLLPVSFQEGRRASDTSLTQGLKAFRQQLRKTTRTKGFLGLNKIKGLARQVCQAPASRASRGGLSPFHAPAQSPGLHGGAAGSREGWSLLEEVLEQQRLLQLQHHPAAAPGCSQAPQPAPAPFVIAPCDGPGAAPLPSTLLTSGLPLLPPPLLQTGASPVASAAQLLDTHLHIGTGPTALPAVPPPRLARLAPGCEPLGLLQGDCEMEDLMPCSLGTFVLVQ
# [7] = target: Serine/threonine-protein kinase SIK2 (Homo sapiens) (UniProt Q9H0K1); test: Inhibition of recombinant human GST-tagged SIK2 assessed as downregulation of SIK2 phosphorylation at Ser358 incubated for 30 mins by Western blotting analysis
# Sequence of Serine/threonine-protein kinase SIK2 (Homo sapiens) (Q9H0K1 whole entry, looked up): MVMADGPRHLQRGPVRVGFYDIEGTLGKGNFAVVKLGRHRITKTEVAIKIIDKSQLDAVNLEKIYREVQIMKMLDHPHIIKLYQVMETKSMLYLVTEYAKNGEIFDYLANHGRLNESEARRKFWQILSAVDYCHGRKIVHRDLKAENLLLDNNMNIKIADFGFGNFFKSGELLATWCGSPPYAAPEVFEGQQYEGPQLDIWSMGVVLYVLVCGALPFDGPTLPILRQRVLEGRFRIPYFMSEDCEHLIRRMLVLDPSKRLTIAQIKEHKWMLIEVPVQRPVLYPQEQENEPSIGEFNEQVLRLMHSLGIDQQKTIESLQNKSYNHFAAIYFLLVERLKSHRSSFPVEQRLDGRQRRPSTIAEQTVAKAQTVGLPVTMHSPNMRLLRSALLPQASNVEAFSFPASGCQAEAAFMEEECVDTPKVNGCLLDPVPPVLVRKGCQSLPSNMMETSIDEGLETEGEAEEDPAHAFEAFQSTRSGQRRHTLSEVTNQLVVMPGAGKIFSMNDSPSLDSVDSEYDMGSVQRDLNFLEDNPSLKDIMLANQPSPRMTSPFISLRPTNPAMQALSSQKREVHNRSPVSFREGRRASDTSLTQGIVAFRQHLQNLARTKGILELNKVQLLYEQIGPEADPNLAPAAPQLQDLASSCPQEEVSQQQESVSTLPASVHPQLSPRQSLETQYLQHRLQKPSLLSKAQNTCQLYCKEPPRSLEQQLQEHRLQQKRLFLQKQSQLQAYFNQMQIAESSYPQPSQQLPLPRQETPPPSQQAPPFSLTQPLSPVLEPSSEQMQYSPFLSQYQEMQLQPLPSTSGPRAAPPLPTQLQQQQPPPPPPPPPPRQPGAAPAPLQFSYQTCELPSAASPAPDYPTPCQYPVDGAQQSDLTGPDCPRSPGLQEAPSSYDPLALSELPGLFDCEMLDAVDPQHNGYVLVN
# SK-OV-3 [8] = test: Induction of cell cycle arrest in human SK-OV-3 cells assessed as accumulation of cells at S phase at 5 uM incubated for 24 hrs by flow cytometry (reference value: 32%); format: functional
# HCT-116 [9] = test: Cytotoxicity against human HCT-116 cells assessed as effect on cell viability at 1 uM incubated for 80 hrs by Hoechst-33342 staining high-content imaging analysis; format: toxicity, cell-based; conditions: hct-116, 80 h
# HCT-116 [10] = test: Cytotoxicity against human HCT-116 cells assessed as decrease in cell viability at 10 uM incubated for 24 hrs by Hoechst-33342 staining high-content imaging analysis; format: toxicity, cell-based; conditions: hct-116, 24 h
# [11] = target: Serine/threonine-protein kinase SIK2 (Homo sapiens) (UniProt Q9H0K1); test: Inhibition of SIK2 in human SK-OV-3 cells assessed as downregulation of AKT phosphorylation at Ser473 at 5 uM incubated for 48 hrs by Western blotting analysis; format: cell-based
# [12] = target: Serine/threonine-protein kinase SIK2 (Homo sapiens) (UniProt Q9H0K1); test: Inhibition of recombinant human GST-tagged SIK2 assessed as downregulation of SIK2 phosphorylation at Ser358 a 5 uM incubated for 30 mins by Western blotting analysis
# SK-OV-3 [13] = test: Induction of cell cycle arrest in human SK-OV-3 cells assessed as accumulation of cells at G2 phase at 5 uM incubated for 24 hrs by flow cytometry (reference value: 24%); format: functional
# SK-OV-3 [14] = test: Induction of cell cycle arrest in human SK-OV-3 cells assessed as accumulation of cells at G1 phase at 5 uM incubated for 24 hrs by flow cytometry (reference value: 34%); format: functional
# [15] = target: Serine/threonine-protein kinase SIK2 (Homo sapiens) (UniProt Q9H0K1); test: Inhibition of SIK2 in human SK-OV-3 cells assessed as decrease in centrosome dissociation in G2 phase at 5 uM incubated for 48 hrs by immunofluorescence assay; format: cell-based
# HCT-116 [16] = test: Cytotoxicity against human HCT-116 cells assessed as reduction in cell count at 1 uM incubated for >60 hrs by Hoechst-33342 staining high-content imaging analysis; format: toxicity, cell-based; conditions: hct-116, 60 h
# [17] = target: Mitogen-activated protein kinase kinase kinase 20 (Homo sapiens, UniProt Q9NYL2); test: Inhibition of full-length human ZAK using MBP as substrate in presence off ATP by competitive binding assay
# Sequence of Mitogen-activated protein kinase kinase kinase 20 (Q9NYL2 whole entry): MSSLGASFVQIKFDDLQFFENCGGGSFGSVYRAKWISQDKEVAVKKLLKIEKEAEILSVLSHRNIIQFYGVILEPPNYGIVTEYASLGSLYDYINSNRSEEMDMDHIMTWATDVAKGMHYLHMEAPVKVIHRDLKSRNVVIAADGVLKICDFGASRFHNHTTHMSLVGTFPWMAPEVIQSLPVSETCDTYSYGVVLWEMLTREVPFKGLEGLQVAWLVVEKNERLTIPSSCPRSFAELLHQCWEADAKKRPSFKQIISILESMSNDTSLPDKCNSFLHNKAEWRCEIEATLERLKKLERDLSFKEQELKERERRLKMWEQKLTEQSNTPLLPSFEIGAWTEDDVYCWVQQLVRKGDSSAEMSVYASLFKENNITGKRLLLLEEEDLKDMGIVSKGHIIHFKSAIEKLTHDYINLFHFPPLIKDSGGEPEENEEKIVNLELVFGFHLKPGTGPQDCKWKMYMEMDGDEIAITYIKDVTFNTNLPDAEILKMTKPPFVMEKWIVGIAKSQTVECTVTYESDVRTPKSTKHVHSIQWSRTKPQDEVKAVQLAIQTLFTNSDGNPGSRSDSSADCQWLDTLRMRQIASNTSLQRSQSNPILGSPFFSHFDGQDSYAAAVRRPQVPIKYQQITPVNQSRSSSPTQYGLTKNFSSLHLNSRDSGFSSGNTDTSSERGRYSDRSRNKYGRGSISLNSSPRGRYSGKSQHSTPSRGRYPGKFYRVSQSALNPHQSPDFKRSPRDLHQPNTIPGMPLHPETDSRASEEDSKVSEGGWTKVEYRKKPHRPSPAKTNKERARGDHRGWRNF
Compound,ΔTm [1],ΔTm [2],ΔTm [3],ΔTm [4],ΔTm [5],also measured
CNc1ncc2cc(-c3cc(Br)ccc3Cl)c(=O)n(C[C@H]3OC[C@H](N)CO3)c2n1,0.6 °C,0.8 °C,1.5 °C,0.6 °C,1.7 °C,–
CNc1ncc2cc(-c3ccc(-c4cccc(C)n4)cc3Cl)c(=O)n(C[C@H]3OC[C@H](N)CO3)c2n1,–,8.5 °C,–,–,4.2 °C,IC50 [6]: 33 nM
CNc1ncc2cc(-c3ccc(-c4ncccc4F)cc3Cl)c(=O)n(C[C@H]3OC[C@H](N)CO3)c2n1,5.2 °C,3.5 °C,–,2.7 °C,1.8 °C,inhibition [7]: Dose-Dependent Effect; Activity (SK-OV-3 [8]): 7%; Activity (HCT-116 [9]): Non-Toxic; Activity (HCT-116 [10]): Toxic; inhibition [11]: Active; inhibition [12]: Active; Activity (SK-OV-3 [13]): 13%; Activity (SK-OV-3 [14]): 70%; inhibition [15]: Active
CNc1ncc2cc(-c3ccccc3Cl)c(=O)n(CCCCN)c2n1,1.1 °C,3.8 °C,2.2 °C,2.6 °C,1.9 °C,inhibition [7]: Dose-Dependent Effect; Activity (SK-OV-3 [8]): 6%; Activity (HCT-116 [10]): Toxic; inhibition [11]: Active; inhibition [12]: Active; Activity (SK-OV-3 [14]): 58%; inhibition [15]: Active; Activity (HCT-116 [16]): Toxic
CNc1ncc2cc(-c3cc(Br)ccc3Cl)c(=O)n(CCCCN)c2n1,0 °C,2.7 °C,2.5 °C,2.2 °C,1.9 °C,–
CCCS(=O)(=O)Nc1ccc(F)c(C(=O)c2c[nH]c3ncc(-c4ccc(Cl)cc4)cc23)c1F [VEMURAFENIB],–,–,–,–,–,IC50 [17]: 4 nM
CN[C@@H]1C[C@H]2O[C@@](C)([C@@H]1OC)n1c3ccccc3c3c4c(c5c6ccccc6n2c5c31)C(=O)NC4,6.7 °C,–,–,–,–,–
CNc1ncc2cc(-c3cc(Br)ccc3Br)c(=O)n(CCCCN)c2n1,0.7 °C,1.9 °C,1.4 °C,1.5 °C,1.6 °C,–
CNc1ncc2cc(-c3cc(C(F)(F)F)ccc3Cl)c(=O)n(CCCCN)c2n1,0.2 °C,0.2 °C,0.8 °C,0.4 °C,0.9 °C,–
CNc1ncc2cc(-c3cc(Cl)ccc3Br)c(=O)n(CCCCN)c2n1,0.6 °C,2 °C,1.4 °C,1.8 °C,1.5 °C,–
CNc1ncc2cc(-c3cc(F)c(-c4cccc(C)n4)cc3F)c(=O)n(CCCCN)c2n1,3.6 °C,9.7 °C,5.2 °C,7.6 °C,2.8 °C,–
CNc1ncc2cc(-c3cc(Cl)ccc3Cl)c(=O)n(CCCCN)c2n1,0.7 °C,1.9 °C,1.4 °C,2 °C,1.6 °C,–
